Each block holds one molecule with its values, some of them ahead of it.
Assays:
[1] = system: 5′-FAM-AT11-L0-TAMRA-3′ (DNA, G4) TGGTGGTGGTTGTTGGGTGGTGGTGGT; assay: FRET melting; details: 65 mM KCl, 20 mM potassium phosphate, pH 6.9, 0.2 µM DNA
[2] = system: 5′-Cy5-AT11-L0 (DNA, G4) TGGTGGTGGTTGTTGGGTGGTGGTGGT; assay: fluorescence titration (Cy5 quenching), two-site model; details: 65 mM KCl, 20 mM potassium phosphate; pH 6.9; 1 µM DNA; site 1 of 2; apparent
[3] = system: 5′-Cy5-AT11-L0 (DNA, G4) TGGTGGTGGTTGTTGGGTGGTGGTGGT; assay: fluorescence titration (Cy5 quenching), Hill model; details: 65 mM KCl, 20 mM potassium phosphate; pH 6.9; 1 µM DNA; apparent
[4] = biological target: T1, nucleolin RBD1,2 (NCL RBD1,2) (UniProt P19338 307-466); assay: fluorescence titration (Cy5 quenching); no ligand; two-site model, KD1; aptamer pre-annealed in 20 mM potassium phosphate pH 6.9, 65 mM KCl (95 C 10 min, ice 10 min); titration temperature not given in the material; details: protein: recombinant; label: 5'-Cy5; parallel G4, pre-folded in K+
[5] = biological target: T1, nucleolin RBD1,2 (NCL RBD1,2); assay: fluorescence titration (Cy5 quenching); ligand PhenDC3; two-site model, KD1; aptamer pre-annealed in 20 mM potassium phosphate pH 6.9, 65 mM KCl (95 C 10 min, ice 10 min); titration temperature not given in the material; details: protein: recombinant; label: 5'-Cy5; parallel G4, pre-folded in K+
[6] = biological target: T1, nucleolin RBD1,2 (NCL RBD1,2); assay: fluorescence titration (Cy5 quenching); ligand C8; two-site model, KD1; aptamer pre-annealed in 20 mM potassium phosphate pH 6.9, 65 mM KCl (95 C 10 min, ice 10 min); titration temperature not given in the material; details: protein: recombinant; label: 5'-Cy5; parallel G4, pre-folded in K+

T1 sequence (P19338 307-466): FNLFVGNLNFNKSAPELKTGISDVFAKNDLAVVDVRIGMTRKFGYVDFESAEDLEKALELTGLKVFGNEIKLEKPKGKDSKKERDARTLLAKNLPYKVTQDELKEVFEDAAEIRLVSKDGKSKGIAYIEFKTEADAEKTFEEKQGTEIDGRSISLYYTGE

ΔTm ([1]; 0.2 µM compound (1 eq)): 0.1 °C
Molecule: C[C@@H]1C[C@H]2[C@@H]3CCC4=CC(=O)C=C[C@]4(C)[C@@]3(F)[C@@H](O)C[C@]2(C)[C@@]1(O)C(=O)CO

ΔTm ([1]; 1 µM compound (5 eq)): 28 °C
Molecule: C[n+]1ccc(-c2c3nc(c(-c4cc[n+](C)cc4)c4ccc([nH]4)c(-c4cc[n+](C)cc4)c4nc(c(-c5cc[n+](C)cc5)c5ccc2[nH]5)C=C4)C=C3)cc1

KD1 [2]: 329 pM
ΔTm ([1]; 1 µM compound (5 eq)): > 30 °C
Molecule: C[n+]1cc(NC(=O)c2ccc3ccc4ccc(C(=O)Nc5cc6ccccc6[n+](C)c5)nc4c3n2)cc2ccccc21

ΔTm ([1]; 1 µM compound (5 eq)): 26.9 °C
Molecule: NCCOc1cc(C(=O)Nc2cc(OCCN)c3ccccc3n2)nc(C(=O)Nc2cc(OCCN)c3ccccc3n2)c1

ΔTm ([1]; 1 µM compound (5 eq)): 20.3 °C
Molecule: CN(C)c1ccc(Nc2c3ccc(NC(=O)CCN4CCCC4)cc3nc3cc(NC(=O)CCN4CCCC4)ccc23)cc1

ΔTm ([1]; 1 µM compound (5 eq)): 19.6 °C
KD [3]: 22.1 nM
Molecule: CN(C)c1ccc2cc3ccc(N(C)C)cc3[n+](CCCCCCCCNC(=O)c3ccc(I)cc3)c2c1

Molecule: TGGTGGTGGTTGTTGGGTGGTGGTGGT (structured_DNA) [5'-Cy5-AT11-L0]
Kd [4]: 0.012 nM
Kd [5]: 0.02 nM
Kd [6]: 0.024 nM

— paper PMC10221175
